Source: US8889678B2, “Acyl guanidine derivatives modulating the hedgehog protein signaling pathway” (Centre National de la Recherche Scientifique, priority 2009, dated 2014)
Read-outs that look alike come from different tables or passages of the source.

What was measured:
[1] = test system: Hedgehog protein signaling pathway; experiment: Inhibition of SAG-induced alkaline phosphatase activity (differentiation) in C3H10T1/2 cells; assay type: cell-based; conditions: read-out: IC50 (concentration which inhibits 50% of the alkaline phosphatase activity)
Description: The compounds of formula (I) to be tested were dissolved in dimethyl sulfoxide until a concentration of 10 mM was obtained, and then stored at a temperature of −20° C. until use.
The pluripotent fibroblast cell line C3H10T1/2 was cultured under the conditions recommended by the American Type Culture Collection (ATCC).
Activation with SAG causes the cell line to differentiate and allows the cells to express alkaline phosphatase. It was thus possible to measure the activity of the Hedgehog protein signaling pathway by measuring the alkaline phosphatase activity.
The C3H10T1/2 cells were seeded onto 96-well plates at a density of 5×10^3 cells per well, 24 hours before the addition of the test compounds at a concentration ranging from 1 nM to 30 μM and in the presence of 0.1 μM of SAG, using DMEM (Dulbecco's Modified Eagle's Medium) with 10% fetal calf serum, as culture medium. The tests were carried out in quadruplicate. The plates were then incubated for 5 to 6 days at a temperature of 37° C. under an atmosphere of 5% CO2. The cells were then washed in a cold phosphate buffer (Phosphate Buffered Saline: PBS), and then lysed by sonication at 4° C. in 50 μL of solution containing 0.9% of NaCl and 0.2% of Triton X-100.

[2] = molecular target: T1, mouse Smoothened receptor (Mus musculus, UniProt P56726); experiment: Competition with bodipycyclopamine binding on HEK293 cells transfected with mouse Smoothened; conditions: 5 nM bodipycyclopamine, 2 hours at 37° C., read-out: IC50 (concentration which inhibits 50% of the bodipycyclopamine binding)
T1 construct: expressed in transfected cells; host or cells: HEK293 cells, transiently transfected with Fugene6
T1 sequence (P56726 33-793): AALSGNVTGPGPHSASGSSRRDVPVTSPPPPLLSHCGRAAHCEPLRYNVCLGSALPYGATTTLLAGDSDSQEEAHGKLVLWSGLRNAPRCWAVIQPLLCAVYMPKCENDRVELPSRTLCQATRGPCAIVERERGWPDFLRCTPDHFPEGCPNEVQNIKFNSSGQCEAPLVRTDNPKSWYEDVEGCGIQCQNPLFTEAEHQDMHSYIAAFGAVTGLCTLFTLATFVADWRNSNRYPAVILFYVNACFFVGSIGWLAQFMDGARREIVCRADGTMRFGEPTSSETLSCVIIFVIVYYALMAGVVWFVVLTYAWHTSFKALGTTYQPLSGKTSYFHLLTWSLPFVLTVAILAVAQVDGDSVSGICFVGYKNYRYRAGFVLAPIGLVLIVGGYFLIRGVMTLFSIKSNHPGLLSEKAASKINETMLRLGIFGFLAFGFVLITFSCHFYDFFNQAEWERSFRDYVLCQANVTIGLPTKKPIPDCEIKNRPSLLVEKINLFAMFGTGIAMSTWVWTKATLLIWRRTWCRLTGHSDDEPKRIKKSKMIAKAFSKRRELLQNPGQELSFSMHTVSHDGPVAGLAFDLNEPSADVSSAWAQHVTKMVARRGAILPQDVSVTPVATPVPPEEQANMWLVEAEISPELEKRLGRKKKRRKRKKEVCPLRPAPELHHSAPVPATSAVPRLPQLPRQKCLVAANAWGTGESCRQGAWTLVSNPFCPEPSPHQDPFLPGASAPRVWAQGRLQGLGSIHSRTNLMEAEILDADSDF
Description: HEK293 cells are seeded at 70 000 cells per well onto glass cover slips treated with poly-D-lysine in a 24-well plate, and transfected the following day with 0.25 μg of plasmid encoding the mouse Smoothened protein using 0.7 μl of Fugene6 (Roche biochemicals) according to the protocol described by the supplier (i.e. 0.7 μl of Fugene 6 are added to 24 μl of DMEM without any additive, in each well. The mixture is then incubated for 5 minutes at ambient temperature, 0.25 μg of plasmid DNA are added, and then the whole is mixed and incubated for 20 to 30 minutes at ambient temperature. 25 μl of the mixture thus prepared are then added directly to the cell culture medium, in each well of the plate containing 24 wells). After 48 hours, the culture medium is removed, and the cells are rinsed once with 1 ml of a PBS (Phosphate Buffered Saline) phosphate buffer solution, and then fixed for 20 minutes in the presence of an ice-cold solution of paraformaldehyde (PFA) at 4%, and 0.12 M glucose in a PBS phosphate buffer solution. The cells are then rinsed once and washed twice for 5 minutes with 1 ml of a PBS phosphate buffer solution containing 0.5% of fetal calf serum (PBS-FCS). […] The cells are then washed twice for 5 minutes with 1 ml of PBS-FCS, then brought into contact with 1 ml of a 1×PBS phosphate buffer solution. Finally, the cover slips are mounted on a glass slide in the presence of Vectashield containing DAPI (4′,6′-diamidino-2-phenylindole) so as to label the cell nuclei (Vector). […] The fluorescence intensity is then analyzed using the Simple PCI 6.2 software (Hamamatsu Corporation), and then related to the surface area of the nuclei present on the photograph.

[3] = test system: Shh pathway; experiment: In vivo inhibition of Shh-induced Patched mRNA in the subventricular zone of adult mouse brain (in situ hybridization); conditions: adult mice, 4.5 pmol injected with recombinant Shh protein (290 ng) into the lateral ventricle, in situ hybridization 48 hours after injection
Description: Adult male Swiss mice (8 weeks old, 35 g) were anesthetized with a mixture of ketamine (Mérial®, Lyon, France) (0.1 mg/g) and xylazine (Bayer®, Puteaux, France) (0.01 mg/g) by intraperitoneal (i. p.) injection. The recombinant Shh protein (290 ng in a buffer solution containing 150 mM of sodium chloride NaCl and 0.5 mM of dithitheritol DTT), was diluted in 4.5 μl of a solution of 2-hydroxypropyl-beta-cyclodextrin (HBC) at 45% in PBS optionally containing 4.5 pmol of Cur61414 or of compound 24. This mixture was injected stereotaxically into the right lateral ventricle (LV) (n=5 animals for each group), at the following coordinates given relative to the Bregma axis: anteroposterior+0.2 mm; lateral+0.8 mm; dorsoventral−2.5 mm. The reference atlas for the stereotaxic coordinates is: The mouse brain in stereotaxic coordinates, Georges Paxinos, Keith B. J., Franklin, 2nd edition, 2001, Academic Press (San Diego, United States).
The detection of the Patched messenger RNA by in situ hybridization was carried out 48 hours after the injection, as described by Traiffort et al., Eur. J. Neursci, 1999, 11, 3199-3214.

[4] = test system: cells; conditions: Borzillo et al., Curr. Top Med. Chem., 2005; cited from earlier work
[5] = Mus musculus, C3H 10T1/2, after induction with 0.1 μM SAG

Compound | IC50 [1, 5] [nM] | also measured
COc1cc(C(=O)NC(=N)Nc2cccc(NC(=O)c3ccccc3)c2)cc(OC)c1OC [Compound 15, N—(N-(3-benzamidophenyl)carbamimidoyl)-3,4,5-trimethoxybenzamide] | 300 to 1000 | 
COc1cc(C(=O)NC(=N)Nc2ccc(Cl)c(NC(=O)c3ccccc3)c2)cc(OC)c1OC [Compound 16, N—(N-(3-benzamido-4-chlorophenyl)carbamimidoyl)-3,4,5-trimethoxybenzamide] | 300 to 1000 | 
COc1cc(C(=O)NC(=N)Nc2ccc(Cl)c(NC(=O)c3ccc(-c4ccccc4)cc3)c2)cc(OC)c1OC [Compound 17, N-(2-chloro-5-(3-(3,4,5-trimethoxybenzoyl)guanidino)phenyl)-biphenyl-4-carboxamide] | 30 to 300 | 
COc1cc(C(=O)NC(=N)Nc2cccc(NC(=O)c3ccc(N4CCOCC4)cc3)c2)cc(OC)c1OC [Compound 18, 3,4,5-trimethoxy-N—(N-(3-(4-morpholinobenzamido)phenyl)-carbamimidoyl)benzamide] | 30 to 300 | 
COc1cc(C(=O)NC(=N)Nc2cccc(-c3cc4ccccc4[nH]3)c2)cc(OC)c1OC [Compound 19, N—(N-(3-(1H-indol-2-yl)phenyl)carbamimidoyl)-3,4,5-trimethoxybenzamide] | 30 to 300 | melting point: 149 °C
COc1ccc(NC(=O)c2cc(NC(=N)NC(=O)c3cc(OC)c(OC)c(OC)c3)ccc2Cl)cc1 [Compound 20, N—(N-(4-chloro-3-(4-methoxyphenylcarbamoyl)phenyl)-carbamimidoyl)-3,4,5-trimethoxybenzamide] | 300 to 1000 | melting point: 105 °C
COc1cc(C(=O)NC(=N)Nc2ccc(Cl)c(C(=O)Nc3ccccc3)c2)cc(OC)c1OC [Compound 21, N—(N-(4-chloro-3-(phenylcarbamoyl)phenyl)carbamimidoyl)-3,4,5-trimethoxybenzamide] | 300 to 1000 | 
COc1cc(C(=O)NC(=N)Nc2ccc(C)c(C(=O)Nc3ccccc3)c2)cc(OC)c1OC [Compound 22, 3,4,5-trimethoxy-N—(N-(4-methyl-3-(phenylcarbamoyl)phenyl)-carbamimidoyl)benzamide] | 30 to 300 | 
COc1cc(C(=O)NC(=N)Nc2cccc(NC(=O)c3ccc(-c4ccc(F)cc4)cc3)c2)cc(OC)c1OC [Compound 23, 4′-fluoro-N-(3-(3-(3,4,5-trimethoxybenzoyl)guanidino)phenyl)-biphenyl-4-carboxamide] | 3 to 30 | IC50 [2]: 3 to 30 nM
COc1cc(C(=O)NC(=N)Nc2ccc(C)c(NC(=O)c3ccc(-c4ccccc4)cc3)c2)cc(OC)c1OC [Compound 24, N-(2-methyl-5-(3-(3,4,5-trimethoxybenzoyl)guanidino)phenyl)-biphenyl-4-carboxamide] | 3 to 30 | IC50 [2]: 3 to 30 nM; Induction of the Ptc gene messenger RNA in the subventricular zone [3]: disappears
COc1cc(C(=O)NC(=N)Nc2cccc(-c3cn4ccsc4n3)c2)cc(OC)c1OC [Compound 28] | 300 to 1000 | 
COc1cc(C(=O)NC(=N)Nc2cccc(-n3ccc4ccccc43)c2)cc(OC)c1OC [Compound 29, N—(N-(3-(1H-indol-1-yl)phenyl)carbamimidoyl)-3,4,5-trimethoxybenzamide] | 300 to 1000 | 
COc1cc(C(=O)NC(=N)Nc2ccc(C)c(NC(=O)c3ccc(-c4ccc(F)cc4)cc3)c2)cc(OC)c1OC [Compound 30, 4′-fluoro-N-(2-methyl-5-(3-(3,4,5-trimethoxybenzoyl)-guanidino)phenyl)biphenyl-4-carboxamide] | 3 to 30 | 
COc1cc(C(=O)NC(=N)Nc2ccc(Cl)c(NC(=O)Nc3ccccc3)c2)cc(OC)c1OC [Compound 38, N—(N-(4-chloro-3-(3-phenylureido)phenyl)carbamimidoyl)-3,4,5-trimethoxybenzamide] |  | melting point: 127 °C
COc1cccc(CN(C(=O)CC(C)(C)C)C2CC(C(=O)N3CCNCC3)N(Cc3ccc4c(c3)OCO4)C2)c1 (stereo not shown) [Cur61414, reference compound] | 300 to 1000 | IC50 [2]: 30 to 300 nM; Induction of the Ptc gene messenger RNA in the subventricular zone [3]: disappears
CS(=O)(=O)c1ccc(C(=O)Nc2ccc(Cl)c(-c3ccccn3)c2)c(Cl)c1 [GDC-0449, reference compound] | 3 to 30 | 
cyclopamine [reference compound] |  | IC50 ([1]; after induction with 0.1 μM SAG): 300 to 1000 nM; concentrations cytotoxic for cells [4]: above 10 μM
